What was measured:
HeLa cells [1] = test: Cell staining test (confocal laser microscope); format: cell-based; conditions: FIG. 8
Protocol: HeLa cells were seeded onto μ-slide 8 well plates (ibidi) and cultured overnight in an incubator (37° C., 5% CO2, MEM medium (containing 10% fetal bovine serum and 1% penicillin/streptomycin)).

[2] = Effect of pH on fluorescence intensity; format: physicochemical; conditions: 1 μmol/L in 1:1 mixture of buffer (pH 7.4, 6.5, 4) and DMSO; FIG. 7
Protocol: Compound (3) was added to a 1:1 mixture of PBS (pH 7.4), Tris-HCl buffer (pH 6.5), phthalate buffer (pH 4) and DMSO to a final concentration of 1 μmol/L and the fluorescence spectrum was measured.

HeLa cells [3] = test: Endosome staining test (confocal laser microscope); format: cell-based; conditions: endosomes enlarged by wortmannin 100 nM, 30 minutes at 37° C., FIG. 9
Protocol: HeLa cells were seeded on μ-slide 8 well plates (ibidi) and cultured overnight in an incubator (37° C., 5% CO2 presence, MEM medium (containing 10% fetal bovine serum and 1% penicillin/streptomycin)). The medium was removed and wortmannin (100 nM: a PI-3 kinase inhibitor that hypertrophies early endosomes) diluted in MEM medium Various fluorescent compounds (Compound (3), pHrodo Dex (Thermofisher), FM1-43 (Molecular Probe)) diluted with MEM medium were added and incubated for 30 minutes at 37° C. The supernatant was removed, and the cells were incubated at 37° C. for 30 minutes. The supernatant was removed, replaced with MEM medium and observed with a confocal laser microscope. In addition, instead of adding fluorescent compounds, the same experiment was performed using HeLa cells expressing Rab5-RFP (cDNA encoding a fusion protein in which a fluorescent protein is fused to an endosomal membrane-specific protein) before addition of wortmannin. The same experiments were also performed on the control group (CTRL) without adding wortmannin.

SMILES | localisation of fluorescent compound after leaving overnight (retention in cell membrane) (HeLa cells [1]) | change of fluorescence intensity with pH [2] | staining of endosomes (membrane versus contents) (HeLa cells [3])
O=C1c2ccc3c4cccc5cccc(c6ccc(c2c36)C(=O)N1CCCS(=O)(=O)O)c54 [Compound (1)] | remained in the cell membrane |  | 
CCCCCN1C(=O)c2ccc3c4cccc5c(N6CCN(CCCS(=O)(=O)O)CC6)ccc(c6ccc(c2c36)C1=O)c54 [Compound (2)] | remained in the cell membrane |  | 
CCCCCN1C(=O)c2cccc3c(N4CCN(CCCS(=O)(=O)O)CC4)ccc(c23)C1=O [Compound (3)] |  | marked increase in fluorescence intensity was observed with decreasing pH | only the endosomal membrane was specifically stained

Source: patent publication US20250388756A1, “NOVEL FLUORESCENT COMPOUND, AND LIPID BILAYER DYEING METHOD AND ENDOCYTOSIS DETECTION METHOD USING SAID COMPOUND” (DOJINDO LABORATORIES, priority 2020, published 2025)
